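Growth conditions: 96-well plates. Treatment: test compound, 48 hours, 5 concentrations. Analysis: linear interpolation between bracketing concentrations; unreached endpoints set to highest concentration. GI50: concentration for 50% inhibition of growth. TGI: concentration producing complete growth inhibition.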
Tests used:
Test in all cases: NCI tumour cell line growth inhibition, 48 h
[1] = test system: HCC-2998 colon
[2] = test system: MCF7 breast
[3] = test system: OVCAR-5 ovarian
[4] = test system: RXF 393 renal
[5] = test system: SW-620 colon
[6] = test system: SK-OV-3 ovarian
[7] = test system: OVCAR-8 ovarian
[8] = test system: HCT-116 colon
[9] = test system: SF-295 CNS
[10] = test system: CCRF-CEM leukemia
[11] = test system: UACC-62 melanoma
[12] = test system: ACHN renal
[13] = test system: CAKI-1 renal
[14] = test system: K-562 leukemia
[15] = test system: HOP-62 NSCLC
[16] = test system: PC-3 prostate
[17] = test system: M14 melanoma
[18] = test system: IGROV1 ovarian
[19] = test system: OVCAR-3 ovarian
[20] = test system: A549 NSCLC
[21] = test system: HOP-92 NSCLC
[22] = test system: MDA-MB-435
[23] = test system: EKVX NSCLC
[24] = test system: LOX IMVI melanoma
[25] = test system: TK-10 renal
[26] = test system: COLO 205 colon
[27] = test system: HS 578T breast
[28] = test system: SK-MEL-28 melanoma
[29] = test system: MALME-3M melanoma
[30] = test system: KM12 colon
[31] = test system: SF-268 CNS
[32] = test system: 786-0 renal
[33] = test system: HL-60(TB) leukemia
[34] = test system: A498 renal
[35] = test system: MDA-MB-468 breast
[36] = test system: T-47D breast
[37] = test system: SK-MEL-2 melanoma
[38] = test system: SNB-19 CNS
[39] = test system: RPMI-8226 leukemia
[40] = test system: U251 CNS
[41] = test system: NCI-H23 lung
[42] = test system: SK-MEL-5 melanoma
[43] = test system: UACC-257 melanoma
[44] = test system: NCI-H226 lung
[45] = test system: MDA-MB-231 breast
[46] = test system: OVCAR-4 ovarian
[47] = test system: HCT-15 colon
[48] = test system: SR leukemia
[49] = test system: UO-31 renal
[50] = test system: MOLT-4 leukemia
[51] = test system: DU-145 prostate
[52] = test system: SN12C renal
[53] = test system: SF-539 CNS
[54] = test system: SNB-75 CNS

Structure (SMILES): O=C1Nc2cc(Cl)ccc2/C1=C/c1cccc(OCc2ccc(Br)cc2F)c1
- GI50 [1]: 3.71 µM
- TGI [1]: > 100 µM
- GI50 [2]: 0.642 µM
- TGI [2]: 27.8 µM
- GI50 [3]: 8.48 µM
- TGI [3]: > 100 µM
- GI50 [4]: 4.47 µM
- TGI [4]: 50.4 µM
- GI50 [5]: 2.89 µM
- TGI [5]: > 100 µM
- GI50 [6]: 14.6 µM
- TGI [6]: > 100 µM
- GI50 [7]: 4.32 µM
- TGI [7]: > 100 µM
- GI50 [8]: 3.1 µM
- TGI [8]: > 100 µM
- GI50 [9]: 3.16 µM
- TGI [9]: 14.9 µM
- GI50 [10]: 2.91 µM
- TGI [10]: 10.9 µM
- GI50 [11]: 2.49 µM
- TGI [11]: 8.8 µM
- GI50 [12]: 3.94 µM
- TGI [12]: > 100 µM
- GI50 [13]: 2.54 µM
- TGI [13]: 13.9 µM
- GI50 [14]: 2.67 µM
- TGI [14]: 8.56 µM
- GI50 [15]: 4.02 µM
- TGI [15]: 34.2 µM
- GI50 [16]: 3.89 µM
- TGI [16]: > 100 µM
- GI50 [17]: 2.17 µM
- TGI [17]: 5.71 µM
- GI50 [18]: 2.71 µM
- TGI [18]: 97.7 µM
- GI50 [19]: 2.53 µM
- TGI [19]: 7.82 µM
- GI50 [20]: 4.66 µM
- TGI [20]: > 100 µM
- GI50 [21]: 2.33 µM
- TGI [21]: 12.4 µM
- GI50 [22]: 1.82 µM
- TGI [22]: 3.41 µM
- GI50 [23]: 3.23 µM
- TGI [23]: > 100 µM
- GI50 [24]: 2.49 µM
- TGI [24]: 8.24 µM
- GI50 [25]: 14.3 µM
- TGI [25]: > 100 µM
- GI50 [26]: 3.42 µM
- TGI [26]: > 100 µM
- GI50 [27]: 2.17 µM
- TGI [27]: 5.82 µM
- GI50 [28]: 4.47 µM
- TGI [28]: 24.1 µM
- GI50 [29]: 4.15 µM
- TGI [29]: 20.9 µM
- GI50 [30]: 3.65 µM
- TGI [30]: 41 µM
- GI50 [31]: 3.33 µM
- TGI [31]: > 100 µM
- GI50 [32]: 3.79 µM
- TGI [32]: > 100 µM
- GI50 [33]: 1.85 µM
- TGI [33]: 4.53 µM
- GI50 [34]: 7.92 µM
- TGI [34]: 57.2 µM
- GI50 [35]: 2.43 µM
- TGI [35]: 8.88 µM
- GI50 [36]: 3.67 µM
- TGI [36]: > 100 µM
- GI50 [37]: 2.16 µM
- TGI [37]: 5.35 µM
- GI50 [38]: 3.9 µM
- TGI [38]: > 100 µM
- GI50 [39]: 2.35 µM
- TGI [39]: 12.6 µM
- GI50 [40]: 3.79 µM
- TGI [40]: > 100 µM
- GI50 [41]: 3.88 µM
- TGI [41]: > 100 µM
- GI50 [42]: 3.03 µM
- TGI [42]: 10.9 µM
- GI50 [43]: 8.5 µM
- TGI [43]: > 100 µM
- GI50 [44]: 3.09 µM
- TGI [44]: > 100 µM
- GI50 [45]: 2.63 µM
- TGI [45]: 12.5 µM
- GI50 [46]: 3.55 µM
- TGI [46]: 47.2 µM
- GI50 [47]: 2.67 µM
- TGI [47]: 12.3 µM
- GI50 [48]: 2.15 µM
- TGI [48]: 5.07 µM
- GI50 [49]: 2.05 µM
- TGI [49]: > 100 µM
- GI50 [50]: 2.92 µM
- TGI [50]: 9.41 µM
- GI50 [51]: 5.97 µM
- TGI [51]: > 100 µM
- GI50 [52]: 4.11 µM
- TGI [52]: > 100 µM
- GI50 [53]: 1.99 µM
- TGI [53]: 4.34 µM
- GI50 [54]: 1.83 µM
- TGI [54]: 5.11 µM

— PubChem BioAssay (NCI)
